According to patent publication US20190307820A1, “COMPOSITIONS AND METHODS OF USING STAT1/3 INHIBITORS WITH ONCOLYTIC HERPES VIRUS” (priority 2016, published 2019):

Experiments:
STAT3 = target: T1, STAT3 (Homo sapiens, UniProt P40763); assay type: cell-based
T1 construct: Extracted protein was then subjected to western blot assay; endogenous in cells; host or cells: U87 cells, with or without HrR3 infection
Experimental: (§1) (FIG. 5A) U87 cells were treated with HrR3 at a MOI of 5 and indicated concentration of nifuroxazide for 6 hours. Extracted protein was then subjected to western blot assay. (FIG. 5B) U87 cells were treated with indicated concentration of HrR3 or nifuroxazide or stattic or in combination for 72 hours. Cytotoxicity was measured by MTT assay. (FIG. 5C) Relative mRNA level (2^−ΔΔCT) is shown. Data are presented as mean SD, *P<0.05 vs corresponding vehicle treatment.
(§2) FIG. 19A and FIG. 19B, U87 cells (A) or CT26 cells (B) were treated with the indicated concentrations of HrR3 or NF or a combination. Total protein was extracted after 24 hours and subjected to western blot analysis. Band intensity was measured using Image J software and normalized to β-actin. Samples were run in triplicate and data are as means±S.E. Statistically significant differences are indicated by P<0.05 or P<0.01. FIG. 19C, Mice subcutaneously bearing U87 tumors were intratumorally injected with a single dose of HrR3 virus (1×10^6 PFU) and/or peritoneally injected doses of NF as indicated. Tumors were harvested on day 10 post treatment and total protein was extracted from a mouse of each treatment group and subjected to western blot analysis in triplicate. Results are reported as means±S.E.
(§3) Expression of key regulator of the Type1 interferon signaling, STAT1 and STAT3, was determined in nifuroxazide treated oHSV-1 infected U87 cells.
(§4) NF is a known inhibitor of STAT1 and STAT3. To evaluate the underlying molecular mechanism of the anti-tumour effect of the NF and oHSV-1 combination, the STAT1 and STAT3 status in U87 cells (FIG. 19A) and CT26 cells (FIG. 19B) cells was determined after an overnight treatment with NF and oncolytic viruses.

ICP4 = assay: Western blot of ICP4 in HrR3 infected U87 cells; assay type: cell-based, HSV-1; conditions: 0.5 μM, 1 μM and 10 μM nifuroxazide, HrR3 MOI-3, 24 hours
Experimental: FIGS. 4A-4C show the effect of nifuroxazide on HSV-1 gene expression. (FIG. 4A) U87 cells were treated with HrR3 viruses at a MOI-3 and indicated doses of nifuroxazide. 24 hours post infected, total protein was extracted and subjected to western blot analysis. (FIG. 4B) U87 cells were treated with HrR3 at a MOI-5 and indicated concentration of nifuroxazide for 6 hours. ICP27 mRNA level was detected by RT-qPCR. (FIG. 4C) Relative mRNA level (2^−ΔΔCT) is shown. Data are presented as mean SD, *P<0.05 vs corresponding vehicle treatment.
In this example, the underlying mechanism of nifuroxazide mediated oHSV-1 replication enhancement was examined. The effect of nifuroxazide on viral immediate early gene, ICP27 and ICP4 expression was established by Western blot analysis.

pSTAT3 = target: T2, pSTAT3 (Homo sapiens, UniProt P40763); assay: Western blot of phosphorylated STAT3 in harvested U87 tumour tissues; assay type: in vivo, mice; conditions: HrR3 with 50 mg/kg or 100 mg/kg NF i.p., day 10
T2 construct: from tissue; host or cells: subcutaneous U87 tumours harvested from mice
T2 sequence (P40763 whole entry): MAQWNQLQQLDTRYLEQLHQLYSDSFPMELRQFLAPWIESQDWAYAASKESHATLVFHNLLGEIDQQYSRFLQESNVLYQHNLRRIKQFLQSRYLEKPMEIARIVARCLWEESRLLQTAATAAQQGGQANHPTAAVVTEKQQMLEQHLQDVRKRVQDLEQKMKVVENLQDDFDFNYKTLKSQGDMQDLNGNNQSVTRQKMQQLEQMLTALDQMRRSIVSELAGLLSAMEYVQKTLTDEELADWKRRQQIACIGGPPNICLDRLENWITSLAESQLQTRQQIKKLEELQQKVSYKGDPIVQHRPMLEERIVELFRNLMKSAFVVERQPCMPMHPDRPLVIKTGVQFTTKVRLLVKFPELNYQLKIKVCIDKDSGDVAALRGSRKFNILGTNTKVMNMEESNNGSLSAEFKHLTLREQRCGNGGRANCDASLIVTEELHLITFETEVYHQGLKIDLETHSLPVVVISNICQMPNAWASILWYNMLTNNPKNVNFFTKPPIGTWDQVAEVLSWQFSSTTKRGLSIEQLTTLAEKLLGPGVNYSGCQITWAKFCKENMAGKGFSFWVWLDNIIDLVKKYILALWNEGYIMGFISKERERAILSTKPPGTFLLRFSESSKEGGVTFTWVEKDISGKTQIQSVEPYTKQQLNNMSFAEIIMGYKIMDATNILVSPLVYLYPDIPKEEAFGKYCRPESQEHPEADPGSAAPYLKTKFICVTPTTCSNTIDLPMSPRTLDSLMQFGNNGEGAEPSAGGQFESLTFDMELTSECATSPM
Experimental: as §2, with “FIGS. 19A-C show STAT inhibition by the combination of NF and oHSV-1. FIG. 19A” for “FIG. 19A”
To further confirm that NF is able to inhibit STAT activation in vivo, subcutaneously implanted U87 tumours were treated with either HrR3 alone or in combination with 50 mg/kg NF or 100 mg/kg NF. Expression levels of phosphorylated STAT1/3 in harvested tumour tissues were measured by western blotting.

STAT1 = target: T3, STAT1 (Homo sapiens, UniProt P42224); assay: Western blot of STAT1 phosphorylation in U87 cells; assay type: cell-based
T3 construct: Extracted protein was then subjected to western blot assay; endogenous in cells; host or cells: U87 cells, with or without HrR3 infection
T3 sequence (P42224 1-750): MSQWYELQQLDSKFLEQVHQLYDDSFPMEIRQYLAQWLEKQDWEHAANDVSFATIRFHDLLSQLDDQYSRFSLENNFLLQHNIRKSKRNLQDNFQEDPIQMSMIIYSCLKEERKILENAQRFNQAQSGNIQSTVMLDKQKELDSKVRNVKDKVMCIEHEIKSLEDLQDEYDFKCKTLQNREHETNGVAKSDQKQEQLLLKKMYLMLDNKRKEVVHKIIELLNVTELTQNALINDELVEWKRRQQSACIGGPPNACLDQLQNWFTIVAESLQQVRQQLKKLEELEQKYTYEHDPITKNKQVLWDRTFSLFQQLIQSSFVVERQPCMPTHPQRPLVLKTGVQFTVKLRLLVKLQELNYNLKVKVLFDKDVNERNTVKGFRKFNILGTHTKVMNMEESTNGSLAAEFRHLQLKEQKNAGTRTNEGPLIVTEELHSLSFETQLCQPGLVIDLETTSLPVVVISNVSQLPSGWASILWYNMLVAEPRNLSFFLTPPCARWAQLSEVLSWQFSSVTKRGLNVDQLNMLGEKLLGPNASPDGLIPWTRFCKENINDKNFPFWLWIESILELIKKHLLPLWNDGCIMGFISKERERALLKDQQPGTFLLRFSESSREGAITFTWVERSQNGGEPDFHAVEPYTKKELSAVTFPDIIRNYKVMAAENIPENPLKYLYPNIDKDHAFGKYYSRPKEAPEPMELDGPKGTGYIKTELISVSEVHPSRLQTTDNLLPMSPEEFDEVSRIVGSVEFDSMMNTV
Experimental: as §1, §2, §3, §4

T1 sequence (P40763 whole entry): as the sequence (P40763 whole entry) above

Q: Which “HrR3 induced upregulation of STAT3 phosphorylation” value (STAT3; 24 hours) does the source give for `O=C(N/N=C/c1ccc([N+](=O)[O-])o1)c1ccc(O)cc1` [nifuroxazide, Benzoic acid, 4-hydroxy-, [(5-nitro-2-furanyl)metylene]hydrazide] here?
A: effectively suppressed

Q: What about the STAT3 phosphorylation (STAT3; HrR3 MOI of 5, 6 hours) of the same molecule?
A: dose dependent STAT1 and STAT3 phosphorylation reduction

Q: And the “phosphorylation of STAT3” value (STAT3; NF alone, 24 hours)?
A: dose dependent inhibition

Q: And the ICP4 expression (ICP4)?
A: not ICP4 expression

Q: What about the “virally induced upregulation of pSTAT3” value (pSTAT3) of the same molecule?
A: inhibited in a dose-dependent fashion

Q: And the “HrR3 induced upregulation of STAT1 phosphorylation” value (STAT1; 24 hours)?
A: effectively suppressed

Q: What about the STAT1 phosphorylation (STAT1; HrR3 MOI of 5, 6 hours) of the same molecule?
A: dose dependent STAT1 and STAT3 phosphorylation reduction

Q: And the “phosphorylation of STAT1” value (STAT1; NF alone, 24 hours)?
A: dose dependent inhibition
